In BindingDB's records for doi:10.1021/jm980200+ (St. Cloud State University, 1998):

Assay: Inhibitory activity against yeast aldehyde dehydrogenase (AIDH)

| SMILES | IC50 [µM] |
| --- | --- |
| CC(=O)ON(C(C)=O)S(C)(=O)=O [N-Acetoxy-N-acetyl-methanesulfonamide] | 1000 |
| CC(=O)ON(c1ccccc1)S(=O)(=O)c1ccccc1 [N-Acetoxy-N-phenyl-benzenesulfonamide] | 36 |
| CON(c1ccccc1)S(=O)(=O)c1ccccc1 [N-Methoxy-N-phenyl-benzenesulfonamide] | > 1000 |
| CCOC(=O)ON(c1ccccc1)S(=O)(=O)c1ccccc1 [N-[(ethoxycarbonyl)oxy]-N-phenylbenzenesulfonamide] | 64.3 |
| COC(=O)ON(c1ccccc1)S(=O)(=O)c1ccccc1 [N-[(methoxycarbonyl)oxy]-N-phenylbenzenesulfonamide] | 38.3 |
| O=Nc1ccccc1 [NOB] | 2.5 |
| CCOC(=O)ON(C(=O)OCC)S(C)(=O)=O [ethyl (ethoxycarbonyl)oxy(methylsulfonyl)carbamate] | 35.6 |
| COC(=O)ON(C(=O)OC)S(C)(=O)=O [methyl (methoxycarbonyl)oxy(methylsulfonyl)carbamate] | 20.9 |
